Reference: patent publication US9506039B2, “Efficient method for establishing induced pluripotent stem cells” (Kyoto University, priority 2010, dated 2016)

B1: Wnt3a: Wnt3a purchased from R&D systems Inc., added to the medium (protein, UniProt P56704 19-352, looked up)
Protein Wnt-3a: SYPIWWSLAVGPQYSSLGSQPILCASIPGLVPKQLRFCRNYVEIMPSVAEGIKIGIQECQHQFRGRRWNCTTVHDSLAIFGPVLDKATRESAFVHAIASAGVAFAVTRSCAEGTAAICGCSSRHQGSPGKGWKWGGCSEDIEFGGMVSREFADARENRPDARSAMNRHNNEAGRQAIASHMHLKCKCHGLSGSCEVKTCWWSQPDFRAIGDFLKDKYDSASEMVVEKHRESRGWVETLRPRYTYFKVPTERDLVYYEASPNFCEPNPETGSFGTRDRTCNVSSHGIDGCDLLCCGRGHNARAERRREKCRCVFHWCCYVSCQECTRVYDVHTCK

System: human dermal fibroblasts (HDF: cell name 1616)
Assay: iPS cell colony establishment, 3 genes (Oct3/4, Sox2, Klf4) plus added gene or compound
Format: cell-based
Conditions: Example 9, FIG. 9; Oct3/4, Sox2, Klf4 plus agent in medium (PS48 10 μM, CHIR99021 1 μM, Wnt3a 10 ng/ml); day 32
Source text: The following genes were introduced into human dermal fibroblasts (HDF: cell name 1616, purchased from Cell applications, Inc.) in the same manner as in the aforementioned Example 1.
In addition, the culture condition was changed (5×10^5 cells/well), and the following genes were introduced into human dermal fibroblasts (HDF: cell name 1616, purchased from Cell applications, Inc.) in the same manner.
In the same manner as in the aforementioned Example 1, the following genes were introduced into dermal fibroblasts (HDF: cell name 1616) in the presence of each low-molecular-weight compound.
The following genes were introduced into dermal fibroblasts (HDF: cell name 1616) in the same manner as in the aforementioned Example 1.
The following genes were introduced into human dermal fibroblasts (HDF: cell name 1616) in the same manner as in the aforementioned Example 1.
Furthermore, the following genes were introduced into human dermal fibroblasts (HDF: cell name 1616).

Row | Molecule | number of human iPS cell colonies
1 | O=C(O)/C=C(/CCc1ccc(Cl)cc1)c1ccccc1 [PS48] | increased significantly
2 | Cc1c[nH]c(-c2cnc(NCCNc3ccc(C#N)cn3)nc2-c2ccc(Cl)cc2Cl)n1 [CHIR99021] | tended to decrease
3 | B1 | increased significantly
